Measured values taken from ChEMBL document CHEMBL3792288, “VP1 crystal structure-guided exploration and optimization of 4,5-dimethoxybenzene-based inhibitors of rhinovirus 14 infection” (Eur J Med Chem, 2016).
pEC50: −log10 of the molar value. Active and inactive are the calls of the source. No cut-off for these calls is given here.

What was measured:
[1] = Cytotoxicity against human HeLa Rh cells assessed as cell viability by light microscopy; format: cell-based
[2] = system: Rhinovirus A; experiment: Antiviral activity against Human Rhinovirus A serotype 2 infected in HeLa Rh cells assessed as reduction of virus-induced cytopathic effect after 3 days by MTS assay; format: functional, cell-based
[3] = system: Rhinovirus B; experiment: Antiviral activity against Human Rhinovirus B serotype 14 infected in HeLa Rh cells assessed as reduction of virus-induced cytopathic effect after 3 days by MTS assay; format: functional, organism-based; settings: serotype 14, HeLa Rh, 72 h
[4] = Selectivity index, ratio of CC50 for human HeLa Rh cells to EC50 for Human Rhinovirus B serotype 14 infected in HeLa Rh cells; format: toxicity, cell-based; settings: read-out: Ratio CC50/EC50

With `COc1cc(CC(O)c2ccc(-c3ccc(C)cc3)cc2)c([N+](=O)[O-])cc1OC` (stereo not drawn) the CC50 [1] was 4.7 µM, the Activity [2] was “inactive” and the pEC50 [3] was < 5.33.
With `COc1cc(CC(O)c2ccc(-c3ccc(C=O)cc3)cc2)c([N+](=O)[O-])cc1OC` (stereo not drawn) the CC50 [1] was > 245 µM, the Activity [2] was “inactive” and the pEC50 [3] was < 3.61.
In the case of `COc1cc(CC(O)c2ccc(-c3cccc(Cl)c3)cc2)c([N+](=O)[O-])cc1OC` (stereo not drawn), the CC50 [1] was 5.9 µM, the selectivity ratio [4] was 3.5 and the Activity [2] was “inactive”. It also gave a pEC50 [3] of 5.77.
With `COc1cc(CC(O)c2ccc(-c3cccc(CO)c3)cc2)c([N+](=O)[O-])cc1OC` (stereo not drawn) the CC50 [1] was 6 µM, the selectivity ratio [4] was 4.3 and the Activity [2] was “inactive”. The pEC50 [3] was 5.85.
With `COc1cc(CC(O)c2cccc(-c3ccc(C#N)cc3)c2)c([N+](=O)[O-])cc1OC` (stereo not drawn) the CC50 [1] was 9.3 µM, the Activity [2] was “inactive” and the pEC50 [3] was < 5.03.
In the case of `COc1cc(CC(O)c2ccc(-c3ccc(F)cc3)cc2)c([N+](=O)[O-])cc1OC` (stereo not drawn), the CC50 [1] was 4.5 µM, the Activity [2] was “inactive” and the pEC50 [3] was < 5.35.
For `COc1cc(CC(O)c2ccc(-c3ccccc3F)cc2)c([N+](=O)[O-])cc1OC` (stereo not drawn), the CC50 [1] was 5 µM, the Activity [2] was “inactive” and the pEC50 [3] was < 5.30.
For `COc1cc(CC(O)c2ccc(-c3ccc(Cl)cc3)cc2)c([N+](=O)[O-])cc1OC` (stereo not drawn), the CC50 [1] was 4.1 µM, the Activity [2] was “inactive” and the pEC50 [3] was < 5.39.
In the case of `Cc1cc(CCCOc2c(C)cc(-c3noc(C(F)(F)F)n3)cc2C)on1` [PLECONARIL], the CC50 [1] was 50.2 µM, the Activity [2] was “inactive” and the pEC50 [3] was 6.70.
With `COc1cc(CC(O)c2ccc(-c3ccccc3C#N)cc2)c([N+](=O)[O-])cc1OC` (stereo not drawn) the CC50 [1] was 9.3 µM, the Activity [2] was “inactive” and the pEC50 [3] was < 5.03.
For `COc1cc(CC(O)c2ccc(-c3ccc(Br)cc3)cc2)c([N+](=O)[O-])cc1OC` (stereo not drawn), the CC50 [1] was 4.3 µM, the Activity [2] was “inactive” and the pEC50 [3] was < 5.37.
For `COc1cc(CC(O)c2ccc(-c3cccnc3)cc2)c([N+](=O)[O-])cc1OC` (stereo not drawn), the CC50 [1] was > 263 µM, the selectivity ratio [4] was > 132 and the Activity [2] was “inactive”. For the same compound, the pEC50 [3] was 5.70.
For `COc1cc(CC(O)c2ccc(-c3ccoc3)cc2)c([N+](=O)[O-])cc1OC` (stereo not drawn), the CC50 [1] was 5.3 µM, the selectivity ratio [4] was 3.3 and the Activity [2] was “inactive”. The pEC50 [3] was 5.80.
With `COc1cc(CC(O)c2cccc(-c3ccc(Cl)cc3)c2)c([N+](=O)[O-])cc1OC` (stereo not drawn) the CC50 [1] was 5 µM, the Activity [2] was “inactive” and the pEC50 [3] was < 5.30.
`COc1cc(CC(O)c2ccc(-c3ccccc3)cc2)c([N+](=O)[O-])cc1OC` (stereo not drawn) showed a pEC50 [3] of 5.71.
In the case of `COc1ccc(-c2ccc(C(O)Cc3cc(OC)c(OC)cc3[N+](=O)[O-])cc2)cc1` (stereo not drawn), the CC50 [1] was > 244 µM, the Activity [2] was “inactive” and the pEC50 [3] was < 3.61.
For `COc1cc(CC(O)c2ccc(-c3cccc([N+](=O)[O-])c3)cc2)c([N+](=O)[O-])cc1OC` (stereo not drawn), the CC50 [1] was 5.5 µM, the selectivity ratio [4] was 2.5 and the Activity [2] was “inactive”. The pEC50 [3] was 5.66.
In the case of `COc1cc(CC(O)c2ccc(-c3ccncc3)cc2)c([N+](=O)[O-])cc1OC` (stereo not drawn), the CC50 [1] was > 263 µM, the selectivity ratio [4] was > 77.3 and the Activity [2] was “inactive”. The pEC50 [3] was 5.47.
In the case of `COc1cc(CC(O)c2ccc(-c3ccccc3CO)cc2)c([N+](=O)[O-])cc1OC` (stereo not drawn), the CC50 [1] was 24 µM, the selectivity ratio [4] was 8 and the Activity [2] was “inactive”. The pEC50 [3] was 5.52.
With `COc1cc(CC(O)c2ccc(-c3cccs3)cc2)c([N+](=O)[O-])cc1OC` (stereo not drawn) the CC50 [1] was 11 µM, the selectivity ratio [4] was 6.9 and the Activity [2] was “inactive”. The pEC50 [3] was 5.80.
`COc1cc(CC(O)c2ccc(C#N)cc2)c([N+](=O)[O-])cc1OC` (stereo not drawn) showed a CC50 [1] of 104 µM and a pEC50 [3] of 5.66.
In the case of `COc1cc(CC(O)c2ccc(-c3cccc(F)c3)cc2)c([N+](=O)[O-])cc1OC` (stereo not drawn), the CC50 [1] was 7.4 µM, the selectivity ratio [4] was 3.4 and the Activity [2] was “inactive”. For the same compound, the pEC50 [3] was 5.66.
With `COc1cc(CC(O)c2ccc(-c3ccc([N+](=O)[O-])cc3)cc2)c([N+](=O)[O-])cc1OC` (stereo not drawn) the CC50 [1] was 21 µM, the selectivity ratio [4] was 4.5 and the Activity [2] was “inactive”. For the same compound, the pEC50 [3] was 5.33.
For `COc1cc(CC(O)c2ccc(-c3ccc(C#N)cc3)cc2)c([N+](=O)[O-])cc1OC` (stereo not drawn), the CC50 [1] was 4.7 µM, the Activity [2] was “inactive” and the pEC50 [3] was < 5.33.
With `COc1cc(CC(O)c2ccc(-c3ccc(C(F)(F)F)cc3)cc2)c([N+](=O)[O-])cc1OC` (stereo not drawn) the CC50 [1] was 4.1 µM, the Activity [2] was “inactive” and the pEC50 [3] was < 5.22.
For `COc1cc(CC(O)c2ccc(-c3cccc(C#N)c3)cc2)c([N+](=O)[O-])cc1OC` (stereo not drawn), the CC50 [1] was 5.2 µM, the selectivity ratio [4] was 3.7 and the Activity [2] was “inactive”. It also gave a pEC50 [3] of 5.85.
With `COc1cc(CC(O)c2ccc(-c3ccc(CO)cc3)cc2)c([N+](=O)[O-])cc1OC` (stereo not drawn) the CC50 [1] was > 244 µM, the Activity [2] was “inactive” and the pEC50 [3] was < 3.61.
With `COc1cc(CC(O)c2ccc(-c3ccccc3[N+](=O)[O-])cc2)c([N+](=O)[O-])cc1OC` (stereo not drawn) the CC50 [1] was 9.5 µM, the selectivity ratio [4] was 6.3 and the Activity [2] was “inactive”. For the same compound, the pEC50 [3] was 5.82.
